From patent US11001584B2, “Polymorphs” (SYNGENTA PARTICIPATIONS AG, priority 2016, dated 2021) come the findings set out here.

The data set can be described thus: Stability of polymorphs: equal amounts of both polymorphs stirred in IPA, form determined by DSC and high throughput pXRD. Format: physicochemical. The conditions noted are these: 24 hours. The procedure: Equal amounts of the polymorph of the invention and the Reference Form A polymorph were stirred in IPA at a range of temperatures. After 24 hours, the crystals were isolated and dried and their polymorphic form determined by DSC and high throughput pXRD.

Each structure is given as a SMILES string.

Consider `CCOC(=O)OC1=C(c2c(C)cc(Cl)cc2C)C(=O)N(C)C12CCN(OC)CC2` [Reference Form A], for which, where the note is “equal amounts of polymorph of the invention and Reference Form A stirred in IPA at a range of temperatures”, the “DSC curves of the isolated crystals (polymorphic form present)” value is listed as “marked reduction in the presence of Reference Form A”. In addition, the “Powder XRD patterns of the isolated crystals (polymorphic form present)” value (equal amounts of polymorph of the invention and Reference Form A stirred in IPA, room temperature, 40° C. and 50° C.) is reported as “reflections characteristic of Reference Form A were absent”.
For the compound `CCOC(=O)OC1=C(c2c(C)cc(Cl)cc2C)C(=O)N(C)C12CCN(OC)CC2` [polymorph of the invention], the Relative polymorphic stability result (stirred with Reference Form A in IPA, room temperature up to 50° C.) is “the stable form over the temperature range studied”.
